Data set [1] deals with pentagastrin-stimulated acid secretion. Description: Inhibition test on pentagastrin-stimulated acid secretion in rats. Type of data set: in vivo, rat. As to conditions: SD rats, acid output 1st to 4th hour after administration. As to the method: <Inhibition Test on Pentagastrin-stimulated Acid Secretion in Rats>
Male Sprague-Dawley (SD) strain rats were used. Under anesthesia with ethyl ether, operations were performed on each rat to ligate the gastric antrum and also to arrange an intraduodenal catheter and a gastric fistula tube. After completion of the operations, the rat was placed in a Ballmann cage, and pentagastrin was continuously injected at 15 μg/kg/hr through the caudal vein. Each test compound was formed into a suspension by using a 0.5% carboxymethylcellulose sodium solution (hereinafter called “the solvent”). Upon an elapsed timeof 1 hour from the initiation of the injection of pentagastrin, the solvent or the test compound was administered through the intraduodenal catheter. The acidity of sampled gastric juice was measured using an autotitrater, and a product of the acidity and the amount of the gastric juice was recorded as an acid output. […] [formula]

For data set [2] the test system is unchanged. Put plainly: Inhibition test on pentagastrin-stimulated acid secretion in beagles with Heidenhain pouch. It is filed as in vivo, beagle. As to conditions: 1 mg/kg oral (gelatin capsules), acid output 1st to 4th hour after administration. How it is done: <Inhibition Test on Pentagastrin-stimulated Acid Secretion in Beagles with Heidenhain Pouch>
Male beagles with Heidenhain pouch formed beforehand were used. Pentagastrin was continuously and intravenously injected at 4 μg/kg/hr. Upon an elapsed time of 3 hours after the initiation of the continuous injection of pentagastrin, each test compound was filled in gelatin capsules and orally administered. The acidity of sampled gastric juice was measured using an autotitrater, and a product of the acidity and the amount of the gastric juice was recorded as an acid output. Supposing -that an acid output during 1 hour preceding the administration was 100%, acid output over 3 hours ranging from the 1st hour to the 4th hour after the administration of the test compound were converted into percentages (acid output percentages). Based on such acid output percentages, the acid output inhibition rate of each beagle was determined using the below-described formula. An average of such acid output inhibition rates was recorded as the acid inhibition rate of the compound. […] [formula]

In data set [3] the target is T1, CCK-B receptor (Cavia porcellus, UniProt H0VZC5).
T1 construct: the homogenate was provided as a receptor sample; from tissue; host or cells: guinea pig cerebral cortex membrane homogenate
T1 sequence (H0VZC5 1-426): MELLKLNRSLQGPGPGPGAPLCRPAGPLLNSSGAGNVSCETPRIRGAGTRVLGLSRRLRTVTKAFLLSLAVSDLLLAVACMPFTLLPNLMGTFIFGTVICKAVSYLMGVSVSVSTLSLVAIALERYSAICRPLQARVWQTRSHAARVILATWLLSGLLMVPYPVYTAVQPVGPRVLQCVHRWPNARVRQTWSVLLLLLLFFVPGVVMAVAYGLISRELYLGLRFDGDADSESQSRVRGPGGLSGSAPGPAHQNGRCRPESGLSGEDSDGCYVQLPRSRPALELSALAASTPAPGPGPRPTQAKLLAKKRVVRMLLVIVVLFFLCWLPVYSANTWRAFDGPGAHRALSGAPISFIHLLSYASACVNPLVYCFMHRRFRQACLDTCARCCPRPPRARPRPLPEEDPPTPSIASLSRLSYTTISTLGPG
Description: CCK-B receptor binding test ([3H]CCK-B, guinea pig cerebral cortex). As to conditions: [3H]CCK-B 1.0 nM, guinea pig cerebral cortex membranes, 25° C., 2 hours; read-out: binding inhibition constant (Ki value). How it is done:
<CCK-B Receptor Binding Test>
From a male Hartley strain guinea pig, the cerebral cortex was removed. After the cerebral cortex was homogenized with 50 mM tris-HCl buffer (pH 7.4) in an amount 50 times as much as the weight of the cerebral cortex, the homogenate was centrifuged under 50,000 g for 10 minutes. With respect to the resulting pellet, addition of the same buffer in the same amount and centrifugation were repeated twice. […]
As a binding experiment, a [^3H]CCK-B solution of a final concentration of 1.0 nM (50 μL) and the receptor sample (protein content: 800 μg/tube) (900 μL) were added to the solvent, the CCK-B solution of a final concentration of 1.0 μM or a test compound solution (50 μL), followed by a reaction at 25° C. for 2 hours. […] ACS-II scintillator was added to the filter and, after the filter was left over for 24 hours, the radioactivity concentration on the filter was measured by a liquid scintillation counter. A binding in the presence of CCK-B (1 μM) was recorded as a non-specific binding, while a value obtained by subtracting the non-specific binding from a full binding, which had been obtained using the solvent instead of CCK-B, was recorded as a specific binding. From the specific binding of [^3H]CCK-B, the binding inhibition constant (Ki value) of the compound was calculated.

In data set [4] the target is T2, CCK-A receptor (Cavia porcellus, UniProt Q63931).
T2 construct: The homogenate was provided as a receptor sample; from tissue; host or cells: guinea pig pancreas membrane homogenate
T2 sequence (Q63931 1-430): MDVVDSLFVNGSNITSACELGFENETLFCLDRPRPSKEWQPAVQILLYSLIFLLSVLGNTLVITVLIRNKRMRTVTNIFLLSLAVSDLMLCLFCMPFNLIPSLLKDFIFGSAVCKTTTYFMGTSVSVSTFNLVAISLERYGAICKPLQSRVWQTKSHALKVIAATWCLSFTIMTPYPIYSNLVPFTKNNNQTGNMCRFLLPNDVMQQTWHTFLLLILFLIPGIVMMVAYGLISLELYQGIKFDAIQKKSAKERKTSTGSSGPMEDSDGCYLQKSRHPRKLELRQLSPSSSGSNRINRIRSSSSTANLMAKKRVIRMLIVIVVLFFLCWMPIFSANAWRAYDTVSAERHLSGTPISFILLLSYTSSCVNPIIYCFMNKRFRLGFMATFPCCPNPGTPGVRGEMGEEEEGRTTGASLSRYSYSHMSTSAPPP
Description: CCK-A receptor binding test ([3H]L-364,718, guinea pig pancreas). To be noted: [3H]L-364,718 0.2 nM, guinea pig pancreas membranes, 25° C., 2 hours; read-out: binding inhibition constant (Ki value). How it is done: <CCK-A Receptor Binding Test>
From a male Hartley strain guinea pig, the pancreas was removed. The pancreas was homogenized with 10 mM PIPES buffer (pH 6.5, hereinafter called “the solvent”) in an amount 40 times as much as the weight of the pancreas. The solvent contained EGTA (1 mM), magnesium chloride (30 mM), bacitracin (0. 02%) , soybean trypsin inhibitor (0.02%), and sucrose (0.3 M). After filtered through gauze, the homogenate was centrifuged under 50,000 g for 10 minutes. To the resulting pellet, the solvent was added again in an amount as much as the pellet, followed by centrifugation. To the thus-obtained pellet the solvent was added in an amount 40 times as much as the pellet, and the pellet was homogenized. […]
As a binding experiment, a solution (50 μL) of [^3H]L-364,718 (devazepide), said solution having a final concentration of 0.2 nM, and the receptor sample (protein content: 50 μg/tube) (900 μL) were added to the solvent, an L-364,718 solution of a final concentration of 1 μM or a test compound solution (50 μL), followed by a reaction at 25° C. for 2 hours. […] ACS-II scintillator was added to the filter and, after the filter was left over for 24 hours, the radioactivity concentration on the filter was measured by a liquid scintillation counter. […] From the specific binding of [^3H]L-364,718, the binding inhibition constant (Ki value) of the compound was calculated.

The melting point is the temperature of the solid-liquid transition. A word on the Ki: it is the dissociation constant of the complex between target and ligand, obtained from inhibition or displacement.

Consider `CC(C)(C)C(=O)CN1C(=O)C(NC(=O)Nc2cccc(C(C)(C)C(=O)O)c2)CN(C2CCCCC2)c2ccccc21` (racemic) [Example 1, (±)-2-[3-[3-(1-tert-butylcarbonylmethyl-2-oxo-5-cyclohexyl-1,3,4,5-tetrahydro-2H-1,5-benzodiazepin-3-yl)ureido]phenyl]-2-methylpropionic acid], for which the melting point is 215 to 216 °C (dec.).

In the case of `CC(C)(C)C(=O)CN1C(=O)[C@H](NC(=O)Nc2cccc(C(C)(C)C(=O)O)c2)CN(C2CCCCC2)c2ccccc21` [Example 2, (R)-(−)-2-[3-[3-(1-tert-butylcarbonylmethyl-2-oxo-5-cyclohexyl-1,3,4,5-tetrahydro-2H-1,5-benzodiazepin-3-yl)ureido]phenyl]-2-methylpropionic acid], the results for the acid secretion inhibition in data set [1] (0.3 mg/kg intraduodenal) and in data set [2] were 72.7% and 77.9%, respectively. For the same molecule, the Ki was 0.74 nM in data set [3] and 438 nM in data set [4].

On to `CC(C)(C)C(=O)CN1C(=O)[C@H](NC(=O)Nc2cccc(C(C)(C)C(=O)O)c2)CN(C2CCCCC2)c2ccccc21` [Example 5, sodium (R)-2-[3-[3-(1-tert-butylcarbonylmethyl-2-oxo-5-cyclohexyl-1,3,4,5-tetrahydro-2H-1,5-benzodiazepin-3-yl)ureido]phenyl]-2-methylpropionate], for which the acid secretion inhibition in data set [1] (0.1 mg/kg intraduodenal) is 48.4%; in data set [1] (0.3 mg/kg intraduodenal), 79.3%.

For the origin of these results see patent US6344452B1, “1,5-benzodiazepine derivatives” (Zeria Pharmaceuticals Co., Ltd., priority 1998, dated 2002).
